We go through 13 compounds from ChEMBL document CHEMBL1132849, “Amidinohydrazones as guanidine bioisosteres: application to a new class of potent, selective and orally bioavailable, non-amide-based small-molecule thrombin inhibitors” (Bioorg Med Chem Lett, 2000).

“And” between values parts separate entries of the source, which are not always exact repeats. Equal entries are not always repeated.

One may read the Ki as a measure of affinity in units of concentration, obtained from inhibition or displacement. Lower therefore signals higher affinity. One may read the pKa as the negative logarithm of the acid dissociation constant. Read a low pKa as a group that gives up its proton readily. For orientation: half-life means the time needed for the level to fall by half in the phase considered. A low value points to fast loss. Broadly, the clearance is the rate of elimination divided by the concentration. Higher therefore signals efficient removal. Usually Cmax stands for the peak of the concentration-time curve. The logP is a log measure of how a compound divides between an organic and an aqueous phase. The low end stands for lower lipophilicity, the high end for higher lipophilicity.

Data set [1] concerns the target Prothrombin (Homo sapiens, UniProt P00734). Nature of the data set: Inhibitory constant against human alpha thrombin.
The nature of data set [2]: Oral bioavailability in dog. Format: ADME, organism-based, Canis lupus familiaris. Conditions: in vivo.
Data set [3] in a line: pKa was evaluated. It counts as physicochemical.
A short description of data set [4]: The compound was tested for time taken to decrease, half of its initial concentration in dog plasma. Format: ADME, organism-based, Canis lupus familiaris.
A short description of data set [5]: The compound was tested for clearance in dog plasma. It counts as ADME, organism-based, Canis lupus familiaris.
Data set [6] can be described thus: The compound was tested for maximum concentration ( Cmax ) in dog plasma. It counts as ADME, organism-based, Canis lupus familiaris.
The species named for data set [7] is Canis familiaris. Nature of the data set: Vss was determined. Format: ADME, organism-based, Canis lupus familiaris. The note with it: dog, in vivo.
The test system of data set [8] is Canis familiaris. Nature of the data set: Time at which maximal (4 fold increase) prolong clotting time was observed after peroral administration of compound (30 mg/kg). Format: functional, Canis lupus familiaris.
In data set [9] the test system is Canis familiaris. In words: Anticoagulation (1.2 fold increase) after peroral administration of compound (30 mg/kg). Format: functional, Canis lupus familiaris.
Data set [10] relates to Canis familiaris. Nature of the data set: Anticoagulation (1.6 fold increase) after peroral administration of compound (30 mg/kg). It counts as functional, Canis lupus familiaris.
A short description of data set [11]: Percent oral bioavailability of perorally administered compound (30 mg/kg) was tested. The note with it: in vivo, read-out: Bioavailabiility. Format: ADME, organism-based.
Data set [12] in a line: Partition coefficient ( LogP) of the compound. Conditions: octanol/water. It counts as physicochemical.
The species entered for data set [13] is Canis familiaris. In words: Vss in dog. Format: ADME, organism-based, Canis lupus familiaris. Conditions: in vivo.
A short description of data set [14]: Dose at which bioavailability of intravenously administered compound was tested in rabbit. The note with it: in vivo, iv. Format: ADME, organism-based, Oryctolagus cuniculus.
Data set [15] in a line: Dose at which bioavailability of perorally administered compound was tested in rabbit. Format: ADME, organism-based, Oryctolagus cuniculus. The note with it: in vivo, po.
The nature of data set [16]: The compound was tested for its bioavailability in rabbit (by oral dosage). Format: ADME, organism-based, Oryctolagus cuniculus. The note with it: in vivo.
The species named for data set [17] is Canis familiaris. Nature of the data set: The compound was tested for clotting time thrombin(TCT). It counts as functional, Canis lupus familiaris.
The subject of data set [18] is Canis familiaris. Nature of the data set: Time at which maximal (1.6 fold increase) prolong clotting time was observed after peroral administration of compound (30 mg/kg) in dog. Format: functional, Canis lupus familiaris.
The test system of data set [19] is Oryctolagus cuniculus. In words: Prolongation of thrombin clotting time (to 1.9x over control), 60 min after peroral administration (30 mg/kg). Format: functional.
For data set [20], the system named is Oryctolagus cuniculus. Nature of the data set: Prolongation of thrombin clotting time (to 1.9x over control), after peroral administration (30 mg/kg). It counts as functional.
Data set [21] in a line: Percent oral bioavailability of intravenously administered compound (6 mg/kg) was tested in dog. Format: ADME, organism-based, Canis lupus familiaris. Conditions: in vivo, intravenous, read-out: Bioavailabiility.

On to `COc1ccccc1S(=O)(=O)Oc1cc(C)cc(OC/C=N/N=C(N)N)c1`, for which the Ki in [1] was > 1000 nM.

Take `Cc1cc(OCC2(/C=N/N=C(N)N)CC2)cc(OS(=O)(=O)c2ccccc2C#N)c1`: the Ki in [1] came to 40 nM.

For `Cc1cc(OCC/C=N/N=C(N)N)cc(OS(=O)(=O)c2cccc3ccccc23)c1`, the Ki in data set [1] turned out to be 44 nM.

As for `Cc1cc(OCC/C=N/N=C(N)N)cc(OS(=O)(=O)c2cccnc2)c1`, the Ki in [1] came to 36 nM.

The compound `Cc1cc(OCC/C=N/N=C(N)N)cc(OS(=O)(=O)c2ccccc2S(C)(=O)=O)c1` had a Ki in data set [1] of 20 nM.

With `Cc1cc(OCC/C=N/N=C(N)N)cc(OS(=O)(=O)c2ccccc2C#N)c1`, the bioavailability in data set [2] and in data set [11] was 21% each time. In data set [3], the pKa amounted to 8.84. The compound also had a half-life in data set [4] of 19 h. Moreover, the clearance in [5] is 79 mL/min/kg. The Cmax in [6] was 900 nM. In data set [7], this compound yielded a Vss of 23 k. The results for the Time in [8], in data set [9] and in data set [10] were 1 h, 24 h and 8 h, respectively. In addition, the logP in data set [12] came to 2.11.

The compound `COc1ccccc1S(=O)(=O)Oc1cc(C)cc(OCC/C=N/N=C(N)N)c1` came in with a Ki in data set [1] of 11 nM.

`Cc1cc(OCC/C=N/N=C(N)N)cc(OCc2ccccc2C(F)(F)F)c1` had a Ki in data set [1] of 420 nM.

Compound `COc1cc(CCC/C=N/N=C(N)N)cc(OS(=O)(=O)c2ccccc2Cl)c1` gave a Ki in data set [1] of 990 nM. Against the preceding compound, the Ki is about 2.4-fold higher.

In the case of `Cc1cc(OCC/C=N/N=C(N)N)cc(OS(=O)(=O)c2ccccc2Cl)c1`, the bioavailability in [2] came out at 23%; in data set [16] it was 60%; in data set [21], 23%. For the same compound, the pKa in data set [3] was found to be 8.71. Moreover, in [4], the half-life is 21 h. The compound also registered a clearance in data set [5] of 39 mL/min/kg. The peak concentration (Cmax) in [6] was determined as 1800 nM. Also, the Vss in [13] was 3.5 k. For the same compound, the Dose in [14] was determined as 6 mg/kg; in data set [15], 30 mg/kg. Also, the TCT in data set [17] is 34 s and 21 s; in [19] it was 50 s; in data set [20] it was 26 s. The compound also showed a Time in data set [18] of 2 h. In data set [12], this compound had a logP of 2.34.

With `Cc1cc(OCC/C=N/N=C(N)N)cc(OS(=O)(=O)c2cccc(Cl)c2Cl)c1`, the affinity in [1], expressed as Ki, was 9.4 nM.

`Cc1cc(OCC/C=N/N=C(N)N)cc(OS(=O)(=O)c2ccccc2OC(F)(F)F)c1` gave a Ki in data set [1] of 11 nM. This Ki and that of the compound before are within 1.5-fold of each other.

`Cc1cc(OCC/C=N/N=C(N)N)cc(OS(=O)(=O)c2cccc(C)c2)c1`: in data set [1], the inhibitory constant (Ki) was 6 nM.
